Source: PubChem BioAssay (NCI)
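Test compounds were applied to cells in 96-well plates for 48 hours at 5 doses. GI50 marks 50% less growth. TGI: concentration producing complete growth inhibition.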

What was measured:
Test in all cases: NCI anticancer screen, dose series, 48 h
SK-MEL-5 melanoma = test system: SK-MEL-5 melanoma
ACHN renal = test system: ACHN renal
OVCAR-8 ovarian = test system: OVCAR-8 ovarian
IGROV1 ovarian = test system: IGROV1 ovarian
OVCAR-3 ovarian = test system: OVCAR-3 ovarian
PC-3 prostate = test system: PC-3 prostate
HCT-116 colon = test system: HCT-116 colon
KM12 colon = test system: KM12 colon
SR leukemia = test system: SR leukemia
SF-295 CNS = test system: SF-295 CNS
RXF 393 renal = test system: RXF 393 renal
K-562 leukemia = test system: K-562 leukemia
SK-MEL-28 melanoma = test system: SK-MEL-28 melanoma
MDA-MB-435 = test system: MDA-MB-435
M14 melanoma = test system: M14 melanoma
UACC-257 melanoma = test system: UACC-257 melanoma
OVCAR-5 ovarian = test system: OVCAR-5 ovarian
SN12C renal = test system: SN12C renal
SNB-75 CNS = test system: SNB-75 CNS
OVCAR-4 ovarian = test system: OVCAR-4 ovarian
NCI/ADR-RES ovarian = test system: NCI/ADR-RES ovarian
SW-620 colon = test system: SW-620 colon
HCT-15 colon = test system: HCT-15 colon
BT-549 breast = test system: BT-549 breast
NCI-H460 lung = test system: NCI-H460 lung
SF-268 CNS = test system: SF-268 CNS
COLO 205 colon = test system: COLO 205 colon
LOX IMVI melanoma = test system: LOX IMVI melanoma
EKVX NSCLC = test system: EKVX NSCLC
T-47D breast = test system: T-47D breast
HOP-92 NSCLC = test system: HOP-92 NSCLC
RPMI-8226 leukemia = test system: RPMI-8226 leukemia
SK-MEL-2 melanoma = test system: SK-MEL-2 melanoma
SNB-19 CNS = test system: SNB-19 CNS
HOP-62 NSCLC = test system: HOP-62 NSCLC
UO-31 renal = test system: UO-31 renal
U251 CNS = test system: U251 CNS
NCI-H522 lung = test system: NCI-H522 lung
TK-10 renal = test system: TK-10 renal
A549 NSCLC = test system: A549 NSCLC
786-0 renal = test system: 786-0 renal
HS 578T breast = test system: HS 578T breast
UACC-62 melanoma = test system: UACC-62 melanoma
DU-145 prostate = test system: DU-145 prostate
SK-OV-3 ovarian = test system: SK-OV-3 ovarian
CAKI-1 renal = test system: CAKI-1 renal
MDA-MB-231 breast = test system: MDA-MB-231 breast
HL-60(TB) leukemia = test system: HL-60(TB) leukemia
MOLT-4 leukemia = test system: MOLT-4 leukemia
NCI-H226 lung = test system: NCI-H226 lung

## OCCN(CCO)N=Nc1ccc(-c2nc3ccccc3[nH]2)cc1
SK-MEL-5 melanoma
  GI50: 20.2 µM
  TGI: 53.4 µM
ACHN renal
  GI50: 35.6 µM
  TGI: > 100 µM
OVCAR-8 ovarian
  GI50: 24.7 µM
  TGI: 53.9 µM
IGROV1 ovarian
  GI50: 87.4 µM
  TGI: > 100 µM
OVCAR-3 ovarian
  GI50: 11 µM
  TGI: 25.7 µM
PC-3 prostate
  GI50: 39.4 µM
  TGI: > 100 µM
HCT-116 colon
  GI50: 25.3 µM
  TGI: 64.3 µM
KM12 colon
  GI50: 16.3 µM
  TGI: 55.4 µM
SR leukemia
  GI50: 20.3 µM
  TGI: 58.2 µM
SF-295 CNS
  GI50: 17.4 µM
  TGI: 36 µM
RXF 393 renal
  GI50: 27.9 µM
  TGI: 65 µM
K-562 leukemia
  GI50: 24 µM
  TGI: > 100 µM
SK-MEL-28 melanoma
  GI50: 15.8 µM
  TGI: 29.5 µM
MDA-MB-435
  GI50: 18.5 µM
  TGI: 38.8 µM
M14 melanoma
  GI50: 46.4 µM
  TGI: > 100 µM
UACC-257 melanoma
  GI50: 33.2 µM
  TGI: > 100 µM
OVCAR-5 ovarian
  GI50: > 100 µM
  TGI: > 100 µM
SN12C renal
  GI50: 85.5 µM
  TGI: > 100 µM
SNB-75 CNS
  GI50: 28.9 µM
  TGI: > 100 µM
OVCAR-4 ovarian
  GI50: 15.9 µM
  TGI: 36.1 µM
NCI/ADR-RES ovarian
  GI50: 34 µM
  TGI: 58 µM
SW-620 colon
  GI50: 18.9 µM
  TGI: 38.4 µM
HCT-15 colon
  GI50: 21.8 µM
  TGI: 51.2 µM
BT-549 breast
  GI50: 42.7 µM
  TGI: 97.8 µM
NCI-H460 lung
  GI50: 13.7 µM
  TGI: 29.5 µM
SF-268 CNS
  GI50: 3.31 µM
  TGI: 40.5 µM
COLO 205 colon
  GI50: 22.9 µM
  TGI: 70.4 µM
LOX IMVI melanoma
  GI50: 12.5 µM
  TGI: 25.5 µM
EKVX NSCLC
  GI50: 17.1 µM
  TGI: 37.5 µM
T-47D breast
  GI50: 19.8 µM
  TGI: 53.1 µM
HOP-92 NSCLC
  GI50: 3.02 µM
  TGI: 23.8 µM
RPMI-8226 leukemia
  GI50: 21.3 µM
  TGI: 52.4 µM
SK-MEL-2 melanoma
  GI50: 41.2 µM
  TGI: > 100 µM
SNB-19 CNS
  GI50: > 100 µM
  TGI: > 100 µM
HOP-62 NSCLC
  GI50: > 100 µM
  TGI: > 100 µM
UO-31 renal
  GI50: 43.8 µM
  TGI: > 100 µM
U251 CNS
  GI50: 17.6 µM
  TGI: 37.4 µM
NCI-H522 lung
  GI50: 50.2 µM
  TGI: > 100 µM
TK-10 renal
  GI50: 36.1 µM
  TGI: > 100 µM
A549 NSCLC
  GI50: 44.9 µM
  TGI: > 100 µM
786-0 renal
  GI50: 25.2 µM
  TGI: 56.2 µM
HS 578T breast
  GI50: 23.5 µM
  TGI: 72.8 µM
UACC-62 melanoma
  GI50: 35.2 µM
  TGI: > 100 µM
DU-145 prostate
  GI50: 20.9 µM
  TGI: 46.6 µM
SK-OV-3 ovarian
  GI50: > 100 µM
  TGI: > 100 µM
CAKI-1 renal
  GI50: 17 µM
  TGI: 60.6 µM
MDA-MB-231 breast
  GI50: 31.3 µM
  TGI: 97.8 µM
HL-60(TB) leukemia
  GI50: 10.8 µM
  TGI: 32.1 µM
MOLT-4 leukemia
  GI50: 14.4 µM
  TGI: 38.5 µM
NCI-H226 lung
  GI50: > 100 µM
  TGI: > 100 µM
